Tests used:
[1] = tested on: Lactobacillus plantarum 14917; assay: Suspended Cells Challenge Test at 20 s residence time with no surfactant; format: cell-based; details: Lactic Acid 0 ppm
Experimental: The experimental treatment groups were tap water, chlorinated water, a FE sanitizer wash water (FE, FE sanitizer, a solution of peroxyacetic acid and lactic acid, as further specified in a given experiment).
The experimental protocol was as follows: • 1. Transfer 1.00 mL of a ˜10^8cfu/g Lactobacillus plantarum (ATCC 14917) stock culture into a test tube containing 9.00 mL of treatment test solution • 2. Vortex the mixture for 15 s • 3. Stop the reaction by transferring 1 mL of the treated samples to 9 mL of Butterfield Phosphate Buffer • 4. Enumerate viable residual cells through serial dilutions and spread plating with 1-mL transfers • 5. […] Repeat Steps 1 to 5 two more times • 7. Repeat Steps 1 to 6 with flume water • 8. Repeat Steps 1 to 6 with chlorinated water • 9. Repeat Steps 1 to 8 with various levels of FE • 10. Repeat Steps 1 to 8 with various levels of lactic acid • 11. Repeat Steps 1 to 8 with various levels of peroxyacetic acid • 12. Repeat Steps 1 to 11 with Listeria innocua (ATCC33090)
Estimation of Log Reductions • 1. Log […] is a measure of the percent of microorganisms that are inactivated during the disinfection process and is defined as Log Inactivation=Log10 (No/NT) where No is the initial influent concentration of viable microorganisms; NT is the concentration of surviving microorganisms. As M cfu/g=microbial population of stock culture; W cfu/g=microbial population in solution of “Water Treatment” and X cfu/g=microbial population in solution of “X Treatment,” the Log reduction caused by “Treatment X”=Log (w/x)

[2] = cited from earlier work
[3] = 40° C.; cited from earlier work
[4] = tested on: E. coli K12; assay: Attached cells challenge test, Romaine; format: cell-based
[5] = Depletion of sanitizer wash water by diced Romaine Lettuce, commercial scale test; format: physicochemical; details: 38 to 40 F.
Experimental: (§1) These experiments evaluated the consumption or depletion of peroxyacetic acid when used to wash produce.
(§2) Treatments: chlorinated water, peroxyacetic acid wash water, and FE sanitizer wash water
(§3) Temperature: 38 to 40° F.
(§4) Produce: 1.5″×2″ diced Romaine lettuce
(§5) A. Determination of the amount of Romaine Lettuce that could deplete 600 gallons of peroxyacetic acid wash water. • 1. Perform full sanitization on the Pilot Line System. • 2. Fill the 2nd flume tank, 2″ reservoir, and 2″ filtering tank with tap water. • 3. Recycle the water through the system until the water in the system is being cooled down to 40° F. • 4. Calibrate the Prominent System and use the Prominent System to monitor the concentration of PAA in the wash water. • 5. Add the PAA to the 2nd filtering tank until the target processing limit is reached. • 6. Dice the Romaine Lettuce via the translicer. • 7. Collect the 2″33 2″ diced Romaine in totes. • 8. Record the weight of each tote prior to transferring it to the 2nd flume. • 9. Collect three untreated bags of Romaine Lettuce from each bin (1 top, 1 middle, and 1 bottom). • 10. Collect three treated bags of Romaine Lettuce at the end of F2 (1 beginning, 1 middle, and 1 end of the bin). • 11. Place white totes at the bottom of the locations with water spill. Return the spilt water back into the flume tank as needed. • 12. Place white totes at the bottom outlets of the centrifuge to collect liquid that would be spin off from the leaves. Return the collected water back into the flume tank as needed. • 13. Repeat Steps ‘e’ to ‘k’ for the rest of the bins till the FE concentrations fall below the lowest processing limits. • 14. Enumerate the microbial population (APC and Yeast and mold) on the collected samples.
B. Determination of the Amount of Romaine Lettuce that Could Deplete 600 gallons of FE Wash Water • 1. Perform full sanitization on the Pilot Line System. • 2. Fill the flume tank, 2″ flume tank, 1st reservoir, 2nd reservoir, 1st filtering tank, and 2nd filtering tank with tap water. • 3. Recycle the water through the system until the water in the system is being cooled down to 40° F. • 4. Switch on the by-passes for the 1st and 2″ flume tank systems so that water would not be going through the filtering systems but only recycling from the flume tank to its associate reservoir continuously. • 5. Add the chemical ingredients to both tank until the target processing limit is reached. • 6. Verify the concentration of FE by the probe of the Prominent Monitoring System at the 1st flume tank (F1), 1^St Reservoir (R1), 2nd Flume tank (F2), and the 2nd Reservoir (R2). • 7. Collect water samples from F1 and F2. • 8. Assemble the Romaine Lettuce Bins next to the dumpster. • 9. Transfer whole Romaine Lettuce leaves from the bin to the conveyor. • 10. Ensure that the lid above the F1 is closed. Turn the “ON/OFF” switch of the translicer to “ON”. • 11. Turn the conveyor for transferring leaves into the translicer to “ON”. • 12. Ensure that the chopped Romaine are delivered evenly into the flume tank without aggregation and clumping. • 13. Collect three untreated bags of Romaine Lettuce from each bin (1 top, 1 middle, and 1 bottom). • 14. Collect three treated bags of Romaine Lettuce at the end of F2 (1 beginning, 1 middle, and 1 end of the bin). • 15. Verify the pH, temperature, and the concentration of FE at the 1st flume tank (F1), 1st Reservoir (R1), 2nd Flume tank (F2), and the 2nd Reservoir (R2) before and after processing a bin. • 16. Place white totes at the bottom of the locations with water spill. Return the spilt water back into the flume tank as needed. • 17. Place white totes at the bottom outlets of the centrifuge to collect liquid that would be spin off from the leaves. Return the collected water back into the flume tank as needed. • 18. Repeat Steps ‘e’ to ‘o’ for the rest of the bins till the FE concentrations fall below the lowest processing limits. • 19. […]

[6] = tested on: E. coli K12; assay: Attached cells challenge test, Spinach; format: cell-based; details: LA 0.0%
[7] = tested on: indigenous microorganisms (Aerobic Plate Counts); assay: Reduction of indigenous microorganisms on Romaine, commercial scale test; format: cell-based; details: 73-84 ppm peroxyacetic acid, no lactic acid
Experimental: as §1, §2, §3, §4
as §5, with “Place white totes at the bottom outlets of the centrifuge to collect liquid that would be spin off from the leaves. Return the collected water back into the flume tank as needed. • 13. Repeat Steps ‘e’ to ‘k’ for the rest of the bins till the FE concentrations fall below the lowest processing limits. • 14. Enumerate the microbial population (APC and Yeast and mold) on the collected samples.” left out

[8] = 600 gallons, Diced Romaine Lettuce
[9] = Cumulative Wt. of Diced Romaine added 0.0 lb, 600 gallons
[10] = Cumulative Wt. of Diced Romaine added 55.2 lb, 600 gallons
[11] = Cumulative Wt. of Diced Romaine added 114.9 lb, 600 gallons
[12] = Cumulative Wt. of Diced Romaine added 157.2 lb, 600 gallons
[13] = Cumulative Wt. of Diced Romaine added 207.7 lb, 600 gallons
[14] = Cumulative Wt. of Diced Romaine added 272.9 lb, 600 gallons
[15] = Cumulative Wt. of Diced Romaine added 325.8 lb, 600 gallons
[16] = Cumulative Wt. of Diced Romaine added 371.3 lb, 600 gallons
[17] = Cumulative Wt. of Diced Romaine added 424.7 lb, 600 gallons
[18] = Cumulative Wt. of Diced Romaine added 502.6 lb, 600 gallons
[19] = Cumulative Wt. of Diced Romaine added 565.0 lb, 600 gallons
[20] = Cumulative Wt. of Diced Romaine added 629.0 lb, 600 gallons
[21] = Cumulative Wt. of Diced Romaine added 697.1 lb, 600 gallons
[22] = Cumulative Wt. of Diced Romaine added 762.7 lb, 600 gallons
[23] = Cumulative Wt. of Diced Romaine added 826.6 lb, 600 gallons
[24] = Cumulative Wt. of Diced Romaine added 896.2 lb, 600 gallons
[25] = Cumulative Wt. of Diced Romaine added 949.9 lb, 600 gallons

CC(=O)OO [Peroxyacetic acid, peroxyacetic acid]
log reduction of suspended cells ([1]; Peroxyacetic acid 70 ppm): 4.52 log10
log reduction of suspended cells ([1]; Peroxyacetic acid 75 ppm): 5.59 log10
log reduction of suspended cells ([1]; Peroxyacetic acid 80 ppm): 5.59 log10
Oxidation Capacity [2]: 1.81 eV
apparent equilibrium constant Kap [3]: about 2.21
Log reduction, attached cells ([4]; PAA 80 ppm, LA 0.0%): 1.18
Pounds of Romaine treated ([5]; 600 gallons of sanitizer): 949.90 lb
Depletion of PA ([5]; 600 gallons): 0.000013 lb of PA per lb of Romaine
Amount of PA (PAA) consumed [5, 8]: 11.7 ppm
Pounds of PA (PAA) consumed [5, 8]: 0.01208 lb
PA (ppm) in wash water [5, 9]: 84.8 ppm
Peroxide (ppm) in wash water [5, 9]: 7.5 ppm
PA (ppm) in wash water [5, 10]: 83.3 ppm
Peroxide (ppm) in wash water [5, 10]: 7.4 ppm
PA (ppm) in wash water [5, 11]: 82.7 ppm
Peroxide (ppm) in wash water [5, 11]: 7.4 ppm
PA (ppm) in wash water [5, 12]: 82.4 ppm
Peroxide (ppm) in wash water [5, 12]: 7.4 ppm
PA (ppm) in wash water [5, 13]: 82.0 ppm
Peroxide (ppm) in wash water [5, 13]: 7.4 ppm
PA (ppm) in wash water [5, 14]: 81.4 ppm
Peroxide (ppm) in wash water [5, 14]: 7.3 ppm
PA (ppm) in wash water [5, 15]: 81.0 ppm
Peroxide (ppm) in wash water [5, 15]: 7.3 ppm
PA (ppm) in wash water [5, 16]: 80.5 ppm
Peroxide (ppm) in wash water [5, 16]: 7.1 ppm
PA (ppm) in wash water [5, 17]: 79.6 ppm
Peroxide (ppm) in wash water [5, 17]: 6.9 ppm
PA (ppm) in wash water [5, 18]: 78.7 ppm
Peroxide (ppm) in wash water [5, 18]: 6.9 ppm
PA (ppm) in wash water [5, 19]: 78.4 ppm
Peroxide (ppm) in wash water [5, 19]: 6.9 ppm
PA (ppm) in wash water [5, 20]: 77.7 ppm
Peroxide (ppm) in wash water [5, 20]: 6.4 ppm
PA (ppm) in wash water [5, 21]: 76.1 ppm
Peroxide (ppm) in wash water [5, 21]: 6.4 ppm
PA (ppm) in wash water [5, 22]: 75.4 ppm
Peroxide (ppm) in wash water [5, 22]: 6.1 ppm
PA (ppm) in wash water [5, 23]: 74.7 ppm
Peroxide (ppm) in wash water [5, 23]: 6.0 ppm
PA (ppm) in wash water [5, 24]: 73.7 ppm
Peroxide (ppm) in wash water [5, 24]: 6.0 ppm
PA (ppm) in wash water [5, 25]: 73.1 ppm
Peroxide (ppm) in wash water [5, 25]: 6.0 ppm
Log reduction, attached cells ([6]; PAA 70 ppm): 1.33
Log reduction, attached cells ([6]; PAA 80 ppm): 2.46
Aerobic Plate Counts after wash [7]: 2.7 Log cfu/g
Log Reduction of indigenous microorganisms [7]: 0.7 log10

O=[O+][O-] [Ozone]
Oxidation Capacity [2]: 2.07 eV

OCl [Sodium hypochlorite (Chlorine bleach), Sodium hypochlorite]
Oxidation Capacity [2]: 1.36 eV

[O][Cl+][O-] [Chlorine Dioxide]
Oxidation Capacity [2]: 1.57 eV

CC(O)C(=O)O (stereo not shown) [Lactic acid, lactic acid]
Log reduction, attached cells ([4]; PAA 0 ppm, LA 1.2%): 1.28

Source: patent publication US20130072563A1, “PERACID AND 2-HYDROXY ORGANIC ACID COMPOSITIONS AND METHODS FOR SANITATION AND DISEASE PREVENTION” (Fresh Express Incorporated, priority 2009, published 2013)
